Measured values from patent US20240182945A1, “PRODUCTS FOR REGULATION OF EUKARYOTIC AND MICROBIAL CELLS GROWTH” (priority 2021, published 2024).

How the values were obtained:
[1] = tested on: Pseudomonas aeruginosa; conditions: cited from earlier work
[2] = tested on: S.aureus (PP) and MM in sputum from children with pneumonia; assay: Degree of eradication of PP and MM on Columbia agar with antibiotic at concentrations achievable at the site of infection; type: cell-based; parameters: key to Degree of primary pathogen eradication, evaluation of ABEPP: % of primary pathogen (PP) eliminated
Protocol: We next tried to select antibiotics based on building a probability model. Antibiotic efficacy was evaluated based on a novel parameters: • ABEPPMM100—antibiotic concentration that is required for the elimination of 100% “complex” PP+MM. • ABEPPMM99—antibiotic concentration that is required for the elimination of 99% “complex” PP+MM.
ABEPPMM90—antibiotic concentration that is required for the elimination of 90% “complex” PP+MM.
ABEPPMM50—antibiotic concentration that is required for the elimination of 50% “complex” PP+MM.
ABEPP100—antibiotic concentration that affecting on “complex” PP+MM is required for the elimination of 100% PP.
ABEPP99—antibiotic concentration that affecting on “complex” PP+MM is required for the elimination of 99% PP.
ABEPP90—antibiotic concentration that affecting on “complex” PP+MM is required for the elimination of 90% PP.
ABEPP50—antibiotic concentration that affecting on “complex” PP+MM is required for the elimination of 50% PP.
We used sputum from children with pneumonia, with S.aureus as confirmed PP. Patient 1—child • Patient 2—child • Patient 3—child

[3] = 3 h; cited from earlier work
[4] = tested on: bacteria of the biosample (persisters); assay: Neutropenic mice instilled with biosample and treated with antibiotic for 72 h, microbial growth in organs and blood; type: in vivo; conditions: neutropenic C57BL/6 mice treated for 72 h, agar with 100 ug/mL of the antibiotic
Protocol: Next, we confirmed that antibiotics selected with proposed algorithm are effective. Adult C57BL/6 mice were rendered neutropenic by injecting cyclophosphamide subcutaneously 4 days before infection (150 mg/kg of body weight), 1 day before infection (100 mg/kg), and 1 day after infection (100 mg/kg). Mice were anesthetized with 2% isoflurane and orally instilled with biosample (stored at +4 C). Briefly, nares were blocked, and mice aspirated 50 μL of the biosample into the lungs while being held vertically for 60 s.

[5] = tested on: bacteria of sputum from patients with lung diseases; assay: Standard antibiotic susceptibility study using the microbroth dilution method (Algorithm #3); type: cell-based; also: key: '+'—presence of bacterial growth, antibiotic ineffective; '−'—absence of bacterial growth, antibiotic effective
Excerpt: Algorithm #3—Standard antibiotic susceptibility study using the microbroth dilution method.

[6] = tested on: bacteria of sputum from patients with lung diseases; assay: Sputum plated on 24-well plates with antibiotics at Cmax or C0-4 h, Algorithm #1 or #2; type: cell-based; also: key: '+'—presence of bacterial growth, antibiotic ineffective; '−'—absence of bacterial growth, antibiotic effective
Protocol: Pathological material (sputum) from patients with lung diseases was plated into wells of 24-well plates filled with a nutrient medium supplemented with erythrocytes 5%, to which antibiotics were added taken at different concentrations.
Group #1—antibiotics were taken at concentrations close to a maximum (peak) concentration achievable at the site of infection Cmax
Algorithm #1. Lab technician, analyzed the appearance of bacterial growth by comparing the signs of bacterial growth in each well supplemented with antibiotic(s) at certain timepoint, with the signs of bacterial growth in the same well at previous time point(s).
Algorithm #2. Lab technician analyzed the appearance of bacterial growth by comparing the signs of bacterial growth in each well supplemented with antibiotic(s) with bacterial growth in antibiotic-free control

[7] = Patient 1, C0-1 h, 24 h of growth
[8] = Patient 1, C0-2 h, 24 h of growth
[9] = Patient 1, C0-3 h, 24 h of growth
[10] = Patient 1, C0-4 h, 24 h of growth
[11] = Patient 1, C0-6 h, 24 h of growth
[12] = Patient 1, C0-8 h, 24 h of growth
[13] = Patient 1, C0-12 h, 24 h of growth
[14] = Patient 1, C0-24 h, 24 h of growth
[15] = Patient 1, C2-3 h, 24 h of growth
[16] = Patient 1, C3-4 h, 24 h of growth
[17] = Patient 1, C4-6 h, 24 h of growth
[18] = Patient 1, C6-8 h, 24 h of growth
[19] = Patient 1, C8-12 h, 24 h of growth
[20] = Patient 1, C12-24 h, 24 h of growth
[21] = Patient 1, Cmax × 2, 24 h of growth
[22] = Patient 2, C0-3 h, 24 h of growth
[23] = Patient 2, C0-4 h, 24 h of growth
[24] = Patient 2, C0-6 h, 24 h of growth
[25] = Patient 2, C0-8 h, 24 h of growth
[26] = Patient 2, C0-12 h, 24 h of growth
[27] = Patient 2, C0-24 h, 24 h of growth
[28] = Patient 2, C3-4 h, 24 h of growth
[29] = Patient 2, C4-6 h, 24 h of growth
[30] = Patient 2, C6-8 h, 24 h of growth
[31] = Patient 2, C8-12 h, 24 h of growth
[32] = Patient 2, C12-24 h, 24 h of growth
[33] = Patient 3, C0-3 h, 24 h of growth
[34] = Patient 3, C0-4 h, 24 h of growth
[35] = Patient 3, C0-6 h, 24 h of growth
[36] = Patient 3, C0-8 h, 24 h of growth
[37] = Patient 3, C0-12 h, 24 h of growth
[38] = Patient 3, C0-24 h, 24 h of growth
[39] = Patient 3, C3-4 h, 24 h of growth
[40] = Patient 3, C4-6 h, 24 h of growth
[41] = Patient 3, C6-8 h, 24 h of growth
[42] = Patient 3, C8-12 h, 24 h of growth
[43] = Patient 3, C12-24 h, 24 h of growth

SMILES: CC1=C(C(=O)O)N2C(=O)[C@@H](NC(=O)[C@H](N)c3ccccc3)[C@H]2SC1 [Cephalexin]
- activity against Pseudomonas aeruginosa according to standard micro-broth dilution method [1]: not active

SMILES: C[C@H]1COc2c(N3CCN(C)CC3)c(F)cc3c(=O)c(C(=O)O)cn1c23 [Levofloxacin]
- Degree of primary pathogen eradication, evaluation of ABEPP [2, 7]: 100
- Degree of primary pathogen eradication, evaluation of ABEPPMM [2, 7]: 99
- Degree of primary pathogen eradication, evaluation of ABEPP [2, 8]: 99
- Degree of primary pathogen eradication, evaluation of ABEPPMM [2, 8]: 99
- Degree of primary pathogen eradication, evaluation of ABEPP [2, 9]: 90
- Degree of primary pathogen eradication, evaluation of ABEPPMM [2, 9]: 90
- Degree of primary pathogen eradication, evaluation of ABEPP [2, 10]: 100
- Degree of primary pathogen eradication, evaluation of ABEPPMM [2, 10]: 100
- Degree of primary pathogen eradication, evaluation of ABEPP [2, 11]: 100
- Degree of primary pathogen eradication, evaluation of ABEPPMM [2, 11]: 100
- Degree of primary pathogen eradication, evaluation of ABEPP [2, 12]: 50
- Degree of primary pathogen eradication, evaluation of ABEPPMM [2, 12]: 50
- Degree of primary pathogen eradication, evaluation of ABEPP [2, 13]: 50
- Degree of primary pathogen eradication, evaluation of ABEPPMM [2, 13]: 50
- Degree of primary pathogen eradication, evaluation of ABEPP [2, 14]: 0
- Degree of primary pathogen eradication, evaluation of ABEPPMM [2, 14]: 0
- Degree of primary pathogen eradication, evaluation of ABEPP [2, 15]: 90
- Degree of primary pathogen eradication, evaluation of ABEPPMM [2, 15]: 90
- Degree of primary pathogen eradication, evaluation of ABEPP [2, 16]: 99
- Degree of primary pathogen eradication, evaluation of ABEPPMM [2, 16]: 99
- Degree of primary pathogen eradication, evaluation of ABEPP [2, 17]: 100
- Degree of primary pathogen eradication, evaluation of ABEPPMM [2, 17]: 100
- Degree of primary pathogen eradication, evaluation of ABEPP [2, 18]: 90
- Degree of primary pathogen eradication, evaluation of ABEPPMM [2, 18]: 90
- Degree of primary pathogen eradication, evaluation of ABEPP [2, 19]: 50
- Degree of primary pathogen eradication, evaluation of ABEPPMM [2, 19]: 50
- Degree of primary pathogen eradication, evaluation of ABEPP [2, 20]: 50
- Degree of primary pathogen eradication, evaluation of ABEPPMM [2, 20]: 50
- Degree of primary pathogen eradication, evaluation of ABEPP [2, 21]: 100
- Degree of primary pathogen eradication, evaluation of ABEPPMM [2, 21]: 99
- Degree of primary pathogen eradication, evaluation of ABEPP [2, 22]: 50
- Degree of primary pathogen eradication, evaluation of ABEPPMM [2, 22]: 50
- Degree of primary pathogen eradication, evaluation of ABEPP [2, 23]: 50
- Degree of primary pathogen eradication, evaluation of ABEPPMM [2, 23]: 50
- Degree of primary pathogen eradication, evaluation of ABEPP [2, 24]: 50
- Degree of primary pathogen eradication, evaluation of ABEPPMM [2, 24]: 50
- Degree of primary pathogen eradication, evaluation of ABEPP [2, 25]: 50
- Degree of primary pathogen eradication, evaluation of ABEPPMM [2, 25]: 50
- Degree of primary pathogen eradication, evaluation of ABEPP [2, 26]: 50
- Degree of primary pathogen eradication, evaluation of ABEPPMM [2, 26]: 0
- Degree of primary pathogen eradication, evaluation of ABEPP [2, 27]: 0
- Degree of primary pathogen eradication, evaluation of ABEPPMM [2, 27]: 0
- Degree of primary pathogen eradication, evaluation of ABEPP [2, 28]: 50
- Degree of primary pathogen eradication, evaluation of ABEPPMM [2, 28]: 50
- Degree of primary pathogen eradication, evaluation of ABEPP [2, 29]: 50
- Degree of primary pathogen eradication, evaluation of ABEPPMM [2, 29]: 50
- Degree of primary pathogen eradication, evaluation of ABEPP [2, 30]: 50
- Degree of primary pathogen eradication, evaluation of ABEPPMM [2, 30]: 50
- Degree of primary pathogen eradication, evaluation of ABEPP [2, 31]: 50
- Degree of primary pathogen eradication, evaluation of ABEPPMM [2, 31]: 0
- Degree of primary pathogen eradication, evaluation of ABEPP [2, 32]: 0
- Degree of primary pathogen eradication, evaluation of ABEPPMM [2, 32]: 0
- Degree of primary pathogen eradication, evaluation of ABEPP [2, 33]: 50
- Degree of primary pathogen eradication, evaluation of ABEPPMM [2, 33]: 50
- Degree of primary pathogen eradication, evaluation of ABEPP [2, 34]: 50
- Degree of primary pathogen eradication, evaluation of ABEPPMM [2, 34]: 0
- Degree of primary pathogen eradication, evaluation of ABEPP [2, 35]: 0
- Degree of primary pathogen eradication, evaluation of ABEPPMM [2, 35]: 0
- Degree of primary pathogen eradication, evaluation of ABEPP [2, 36]: 0
- Degree of primary pathogen eradication, evaluation of ABEPPMM [2, 36]: 0
- Degree of primary pathogen eradication, evaluation of ABEPP [2, 37]: 0
- Degree of primary pathogen eradication, evaluation of ABEPPMM [2, 37]: 0
- Degree of primary pathogen eradication, evaluation of ABEPP [2, 38]: 0
- Degree of primary pathogen eradication, evaluation of ABEPPMM [2, 38]: 0
- Degree of primary pathogen eradication, evaluation of ABEPP [2, 39]: 50
- Degree of primary pathogen eradication, evaluation of ABEPPMM [2, 39]: 50
- Degree of primary pathogen eradication, evaluation of ABEPP [2, 40]: 0
- Degree of primary pathogen eradication, evaluation of ABEPPMM [2, 40]: 0
- Degree of primary pathogen eradication, evaluation of ABEPP [2, 41]: 0
- Degree of primary pathogen eradication, evaluation of ABEPPMM [2, 41]: 0
- Degree of primary pathogen eradication, evaluation of ABEPP [2, 42]: 0
- Degree of primary pathogen eradication, evaluation of ABEPPMM [2, 42]: 0
- Degree of primary pathogen eradication, evaluation of ABEPP [2, 43]: 0
- Degree of primary pathogen eradication, evaluation of ABEPPMM [2, 43]: 0
- lung concentration after 3 h of administration [3]: 4.7 µg/mL

SMILES: CN[C@H](CC(C)C)C(=O)N[C@H]1C(=O)N[C@@H](CC(N)=O)C(=O)N[C@H]2C(=O)N[C@H]3C(=O)N[C@H](C(=O)N[C@H](C(=O)O)c4cc(O)cc(O)c4-c4cc3ccc4O)[C@H](O)c3ccc(c(Cl)c3)Oc3cc2cc(c3O[C@@H]2O[C@H](CO)[C@@H](O)[C@H](O)[C@H]2O[C@H]2C[C@](C)(N)[C@H](O)[C@H](C)O2)Oc2ccc(cc2Cl)[C@H]1O [Vancomycin]
- Number of animals with positive microbial growth on the agar with antibiotics/total number of animals per group ([4]; Blood): 6/8
- Number of animals with positive microbial growth on the agar with antibiotics/total number of animals per group ([4]; Liver): 5/8
- Number of animals with positive microbial growth on the agar with antibiotics/total number of animals per group ([4]; Lungs): 8/8
- activity against Pseudomonas aeruginosa according to standard micro-broth dilution method [1]: not active
- ATB efficacy [5]: −
- ATB efficacy ([6]; Algorithm #1, antibiotic at C0-4 h): +
- ATB efficacy ([6]; Algorithm #1, antibiotic at Cmax): −
- ATB efficacy ([6]; Algorithm #2, antibiotic at C0-4 h): +
- ATB efficacy ([6]; Algorithm #2, antibiotic at Cmax): −
